Assay results from patent publication US20160038454A1, “INTRAVENOUS FORMULATIONS OF […] AS IMMUNOMODULATORS AND […] AGENTS” (priority 2013, published 2016).
“Also recorded” adds a separate entry of the source.

Legend:
[1] = system: IL-2 production by Jurkat cells; assay: cells; type: cell-based, human
Procedure: Test samples can be diluted to 1 mM in complete tissue culture medium. Aliquots are placed in microculture plates coated with anti-CD3 antibody (used to stimulate the production of IL-2 by Jurkat cells), and serial dilutions are prepared so that the final concentration encompass the range of 0.001 to 10,000 nM in log increments. Cells from an exponentially expanding culture of Jurkat human T cell line (#TIB-152 obtained from American Type Culture Collection, Manassas, Va.) are harvested, washed once by centrifugation, re-suspended in complete tissue culture medium, and diluted to a concentration of 2×10^6 cells/ml. A volume of 50 μl of Jurkat cells (1×10^5 cells) is added to wells containing 100 μl of the diluted compounds, 50 μl of PMA (10 ng/ml) is added to each well, and the plates are incubated at 37° C. in a 5% CO2 incubator. After 24 hours, the plates are centrifuged to pellet the cells, 150 μl of supernatant is removed from each well, and the samples are stored at −20° C. The stored supernatants are analyzed for human IL-2 concentration using the Luminex 100 (Luminex Corporation, Austin, Tex.), Luminex microspheres coupled with anti-IL-2 capture antibody, and fluorochrome-coupled anti-IL-2 detection antibody. The data are expressed as pg/ml of IL-2.

[2] = Conversion to triptolide using human serum; type: in vitro ADME
Description: (Xia Zhi Lin and Zhen You Lan, Haematologica, 93:14 (2008)).

[3] = Solubility of PG796(MRx102) in triglyceride oils (GTO vs SBO); type: physicochemical; conditions: glyceryl trioctanoate vs soybean oil
[4] = PG796(MRx102) purity (peak area %) / stability in emulsions; type: physicochemical
Procedure: Pharmaceutical emulsions are typically prepared at neutral to slightly alkaline pH since they are stabilized by electrostatic repulsion between droplets imparted by pH-sensitive anionic surfactants, such as phosphatidyl ethanolamine, free fatty acid salts, and cholate. However, it was possible that this pH range could be suboptimal for the chemical stability of PG796(MRx102). To test this, emulsions were prepared at different pH values ranging from 4 to 8. Buffers were included to control the pH, and the non-pH sensitive surfactant, sodium dodecyl sulfate was used in place of sodium cholate to assure a negative charge even in the low pH emulsions. All of the formulations were reasonably stable for up to 2 weeks at room temperature. […]

CC(C)[C@]12O[C@H]1[C@@H]1O[C@]13[C@]1(O[C@H]1C[C@H]1c4c(C(=O)c5ccccc5)oc(OC(=O)c5ccccc5)c4CC[C@@]13C)[C@@H]2O [PG796, 18-deoxo-19-dehydro-18-benzoyloxy-19-benzoyl triptolide]
IL-2 inhibition (in words) ([1]; Jurkat cells, comparison with triptolide or PG490-88): inhibited IL-2 production; also recorded: higher level of activity | activity in IL-2 inhibition assay after incubation in human serum vs mouse serum ([1]; incubated in human serum compared with mouse serum): high, and essentially equivalent, activity | conversion to triptolide in human serum [2]: rapidly and completely converted | solubility in GTO relative to SBO [3]: about 3.4 fold | PG796 (MRx102) Purity ([4]; emulsion target pH 4.0 (acetate), 0 hr): 98.9 peak area % | PG796 (MRx102) Purity ([4]; emulsion target pH 4.0 (acetate), 1 wk): 98.9 peak area % | PG796 (MRx102) Purity ([4]; emulsion target pH 4.0 (acetate), 2 wk): 97.2 peak area % | PG796 (MRx102) Purity ([4]; emulsion target pH 4.0 (acetate), 24 hr): 99.3 peak area % | PG796 (MRx102) Purity ([4]; emulsion target pH 5.0 (acetate), 0 hr): 99.2 peak area % | PG796 (MRx102) Purity ([4]; emulsion target pH 5.0 (acetate), 1 wk): 99.1 peak area % | PG796 (MRx102) Purity ([4]; emulsion target pH 5.0 (acetate), 2 wk): 98.3 peak area % | PG796 (MRx102) Purity ([4]; emulsion target pH 5.0 (acetate), 24 hr): 99.4 peak area % | PG796 (MRx102) Purity ([4]; emulsion target pH 6.0 (histidine), 0 hr): 99.2 peak area % | PG796 (MRx102) Purity ([4]; emulsion target pH 6.0 (histidine), 1 wk): 98.9 peak area % | PG796 (MRx102) Purity ([4]; emulsion target pH 6.0 (histidine), 2 wk): 98.8 peak area % | PG796 (MRx102) Purity ([4]; emulsion target pH 6.0 (histidine), 24 hr): 99.2 peak area % | PG796 (MRx102) Purity ([4]; emulsion target pH 7.0 (phosphate), 0 hr): 99.4 peak area % | PG796 (MRx102) Purity ([4]; emulsion target pH 7.0 (phosphate), 1 wk): 98.8 peak area % | PG796 (MRx102) Purity ([4]; emulsion target pH 7.0 (phosphate), 2 wk): 91.0 peak area % | PG796 (MRx102) Purity ([4]; emulsion target pH 7.0 (phosphate), 24 hr): 99.1 peak area % | PG796 (MRx102) Purity ([4]; emulsion target pH 8.0 (Tris), 0 hr): 98.7 peak area % | PG796 (MRx102) Purity ([4]; emulsion target pH 8.0 (Tris), 1 wk): 99.1 peak area % | PG796 (MRx102) Purity ([4]; emulsion target pH 8.0 (Tris), 2 wk): 98.3 peak area % | PG796 (MRx102) Purity ([4]; emulsion target pH 8.0 (Tris), 24 hr): 99.2 peak area % | pH dependence of stability of PG796(MRx102) in the emulsion ([4]; pH 4 to 8): not pH-dependent
